Data as given in ChEMBL document CHEMBL3132769, “Fragment growing to retain or alter the selectivity of anchored kinase hinge-binding fragments” (Medchemcomm, 2014).

Experiments:
[1] = target: T1, Serine/threonine-protein kinase BRSK1 (Homo sapiens) (UniProt Q8TDC3); assay: Inhibition of human full length BRSK1 expressed in baculovirus assessed as substrate phosphorylation using fluorescence-labelled peptides as substrate at 0.2 uM after 90 mins by microfluidic peptide phosphorylation assay
T1 sequence (whole entry): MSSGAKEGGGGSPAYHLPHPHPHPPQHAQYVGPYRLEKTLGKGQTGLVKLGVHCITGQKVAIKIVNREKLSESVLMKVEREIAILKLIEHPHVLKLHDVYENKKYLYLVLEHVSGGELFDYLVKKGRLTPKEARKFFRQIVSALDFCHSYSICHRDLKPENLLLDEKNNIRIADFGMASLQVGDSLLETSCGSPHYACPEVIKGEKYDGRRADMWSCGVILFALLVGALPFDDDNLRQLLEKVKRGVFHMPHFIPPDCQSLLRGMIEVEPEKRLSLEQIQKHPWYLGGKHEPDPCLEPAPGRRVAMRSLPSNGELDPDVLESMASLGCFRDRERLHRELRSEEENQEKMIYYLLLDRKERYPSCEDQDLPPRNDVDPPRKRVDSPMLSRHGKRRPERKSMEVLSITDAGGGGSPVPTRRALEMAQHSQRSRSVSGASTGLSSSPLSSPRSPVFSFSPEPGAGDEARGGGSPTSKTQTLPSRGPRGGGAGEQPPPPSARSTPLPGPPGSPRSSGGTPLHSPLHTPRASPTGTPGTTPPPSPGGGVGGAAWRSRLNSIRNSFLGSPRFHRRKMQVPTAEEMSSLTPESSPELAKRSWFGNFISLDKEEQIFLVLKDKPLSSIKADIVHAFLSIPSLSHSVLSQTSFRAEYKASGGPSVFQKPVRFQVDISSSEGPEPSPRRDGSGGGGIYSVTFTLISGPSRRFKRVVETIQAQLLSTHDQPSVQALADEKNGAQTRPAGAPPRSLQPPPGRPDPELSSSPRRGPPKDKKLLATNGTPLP

[2] = target: MAP kinase-activated protein kinase 3 (Homo sapiens) (UniProt Q16644); assay: Inhibition of human full length MAPKAPK3 expressed in Escherichia coli cell assessed as substrate phosphorylation using fluorescence-labelled peptides as substrate at 420 uM after 90 mins by microfluidic peptide phosphorylation assay
[3] = target: Calcium/calmodulin-dependent protein kinase type II subunit beta (Homo sapiens) (UniProt Q13554); assay: Inhibition of human CAMK2 beta catalytic domain expressed in baculovirus assessed as substrate phosphorylation using fluorescence-labelled peptides as substrate at 9 uM after 90 mins by microfluidic peptide phosphorylation assay
[4] = target: Protein kinase C gamma type (Homo sapiens) (UniProt P05129); assay: Inhibition of human truncated PKC gamma expressed in baculovirus assessed as substrate phosphorylation using fluorescence-labelled peptides as substrate at 2 uM after 90 mins by microfluidic peptide phosphorylation assay
[5] = target: Epidermal growth factor receptor (Homo sapiens) (UniProt P00533); assay: Inhibition of human EGFR catalytic domain expressed in baculovirus assessed as substrate phosphorylation using fluorescence-labelled peptides as substrate at 2 uM after 90 mins by microfluidic peptide phosphorylation assay
[6] = target: T2, Aurora kinase A (Homo sapiens) (UniProt O14965); assay: Inhibition of human full length AurA expressed in baculovirus assessed as substrate phosphorylation using fluorescence-labelled peptides as substrate at […] after 90 mins by microfluidic peptide phosphorylation assay
T2 sequence (whole entry): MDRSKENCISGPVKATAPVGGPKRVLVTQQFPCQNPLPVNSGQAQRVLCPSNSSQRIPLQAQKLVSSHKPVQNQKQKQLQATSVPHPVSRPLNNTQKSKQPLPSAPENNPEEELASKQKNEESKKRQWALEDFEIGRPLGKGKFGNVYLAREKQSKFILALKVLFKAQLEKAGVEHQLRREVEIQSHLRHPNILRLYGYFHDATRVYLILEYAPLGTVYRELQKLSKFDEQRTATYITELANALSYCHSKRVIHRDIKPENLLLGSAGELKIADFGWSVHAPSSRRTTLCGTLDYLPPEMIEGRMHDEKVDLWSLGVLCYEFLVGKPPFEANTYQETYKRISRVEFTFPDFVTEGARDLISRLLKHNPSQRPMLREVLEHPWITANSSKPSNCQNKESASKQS

[7] = target: T3, Serine/threonine-protein kinase D3 (Homo sapiens) (UniProt O94806); assay: Inhibition of human full length PKD3 expressed in baculovirus assessed as substrate phosphorylation using fluorescence-labelled peptides as substrate at 0.06 uM after 90 mins by microfluidic peptide phosphorylation assay
T3 sequence (whole entry): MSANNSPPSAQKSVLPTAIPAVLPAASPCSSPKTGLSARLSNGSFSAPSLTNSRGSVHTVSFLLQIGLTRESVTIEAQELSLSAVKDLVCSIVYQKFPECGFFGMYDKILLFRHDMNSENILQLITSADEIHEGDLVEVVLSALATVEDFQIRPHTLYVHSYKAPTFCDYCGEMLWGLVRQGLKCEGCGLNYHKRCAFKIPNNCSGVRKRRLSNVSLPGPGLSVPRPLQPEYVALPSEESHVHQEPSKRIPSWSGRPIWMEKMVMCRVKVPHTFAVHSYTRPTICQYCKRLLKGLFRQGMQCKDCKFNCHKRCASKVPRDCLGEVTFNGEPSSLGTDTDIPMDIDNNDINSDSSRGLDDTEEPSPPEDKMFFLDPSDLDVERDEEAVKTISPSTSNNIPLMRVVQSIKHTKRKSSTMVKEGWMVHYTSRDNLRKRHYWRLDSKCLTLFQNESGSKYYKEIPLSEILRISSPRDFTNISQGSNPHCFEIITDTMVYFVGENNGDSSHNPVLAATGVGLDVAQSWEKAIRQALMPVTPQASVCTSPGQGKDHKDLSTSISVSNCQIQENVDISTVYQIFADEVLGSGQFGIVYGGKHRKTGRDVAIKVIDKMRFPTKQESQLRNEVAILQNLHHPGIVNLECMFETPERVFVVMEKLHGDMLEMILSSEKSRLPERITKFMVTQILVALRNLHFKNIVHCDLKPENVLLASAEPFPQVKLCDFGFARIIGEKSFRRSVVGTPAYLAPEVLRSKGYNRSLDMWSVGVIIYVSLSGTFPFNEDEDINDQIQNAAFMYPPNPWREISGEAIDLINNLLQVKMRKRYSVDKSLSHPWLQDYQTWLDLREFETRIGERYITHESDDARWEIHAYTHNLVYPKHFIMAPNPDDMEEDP

[8] = target: T2, Aurora kinase A (Homo sapiens); assay: Inhibition of human full length AurA expressed in baculovirus assessed as substrate phosphorylation using fluorescence-labelled peptides as substrate at 0.06 uM after 90 mins by microfluidic peptide phosphorylation assay
[9] = target: Protein kinase C beta type (Homo sapiens) (UniProt P05771); assay: Inhibition of human full length PKC beta2 expressed in baculovirus assessed as substrate phosphorylation using fluorescence-labelled peptides as substrate at 8 uM after 90 mins by microfluidic peptide phosphorylation assay
Chain of Protein kinase C beta type (Homo sapiens) (P05771 2-671 limits assumed): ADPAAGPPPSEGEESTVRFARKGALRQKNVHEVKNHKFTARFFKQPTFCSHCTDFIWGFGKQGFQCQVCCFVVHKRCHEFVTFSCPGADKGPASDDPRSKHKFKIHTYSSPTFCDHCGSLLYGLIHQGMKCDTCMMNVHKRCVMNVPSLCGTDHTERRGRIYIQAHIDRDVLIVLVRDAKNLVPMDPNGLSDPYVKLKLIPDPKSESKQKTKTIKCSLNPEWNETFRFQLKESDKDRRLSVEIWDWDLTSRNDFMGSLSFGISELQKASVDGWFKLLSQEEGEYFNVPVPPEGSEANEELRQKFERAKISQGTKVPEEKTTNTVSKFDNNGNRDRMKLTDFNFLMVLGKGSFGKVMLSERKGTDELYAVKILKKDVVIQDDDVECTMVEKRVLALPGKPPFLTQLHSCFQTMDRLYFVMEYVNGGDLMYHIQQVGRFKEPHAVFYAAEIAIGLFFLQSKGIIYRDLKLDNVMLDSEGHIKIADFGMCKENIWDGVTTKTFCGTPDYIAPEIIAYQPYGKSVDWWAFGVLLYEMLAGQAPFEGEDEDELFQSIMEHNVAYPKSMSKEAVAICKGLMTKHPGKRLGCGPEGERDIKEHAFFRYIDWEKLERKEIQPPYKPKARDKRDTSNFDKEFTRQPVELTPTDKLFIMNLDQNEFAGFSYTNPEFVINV

Chain of Epidermal growth factor receptor (Homo sapiens) (P00533 whole entry, the tested form may be a part): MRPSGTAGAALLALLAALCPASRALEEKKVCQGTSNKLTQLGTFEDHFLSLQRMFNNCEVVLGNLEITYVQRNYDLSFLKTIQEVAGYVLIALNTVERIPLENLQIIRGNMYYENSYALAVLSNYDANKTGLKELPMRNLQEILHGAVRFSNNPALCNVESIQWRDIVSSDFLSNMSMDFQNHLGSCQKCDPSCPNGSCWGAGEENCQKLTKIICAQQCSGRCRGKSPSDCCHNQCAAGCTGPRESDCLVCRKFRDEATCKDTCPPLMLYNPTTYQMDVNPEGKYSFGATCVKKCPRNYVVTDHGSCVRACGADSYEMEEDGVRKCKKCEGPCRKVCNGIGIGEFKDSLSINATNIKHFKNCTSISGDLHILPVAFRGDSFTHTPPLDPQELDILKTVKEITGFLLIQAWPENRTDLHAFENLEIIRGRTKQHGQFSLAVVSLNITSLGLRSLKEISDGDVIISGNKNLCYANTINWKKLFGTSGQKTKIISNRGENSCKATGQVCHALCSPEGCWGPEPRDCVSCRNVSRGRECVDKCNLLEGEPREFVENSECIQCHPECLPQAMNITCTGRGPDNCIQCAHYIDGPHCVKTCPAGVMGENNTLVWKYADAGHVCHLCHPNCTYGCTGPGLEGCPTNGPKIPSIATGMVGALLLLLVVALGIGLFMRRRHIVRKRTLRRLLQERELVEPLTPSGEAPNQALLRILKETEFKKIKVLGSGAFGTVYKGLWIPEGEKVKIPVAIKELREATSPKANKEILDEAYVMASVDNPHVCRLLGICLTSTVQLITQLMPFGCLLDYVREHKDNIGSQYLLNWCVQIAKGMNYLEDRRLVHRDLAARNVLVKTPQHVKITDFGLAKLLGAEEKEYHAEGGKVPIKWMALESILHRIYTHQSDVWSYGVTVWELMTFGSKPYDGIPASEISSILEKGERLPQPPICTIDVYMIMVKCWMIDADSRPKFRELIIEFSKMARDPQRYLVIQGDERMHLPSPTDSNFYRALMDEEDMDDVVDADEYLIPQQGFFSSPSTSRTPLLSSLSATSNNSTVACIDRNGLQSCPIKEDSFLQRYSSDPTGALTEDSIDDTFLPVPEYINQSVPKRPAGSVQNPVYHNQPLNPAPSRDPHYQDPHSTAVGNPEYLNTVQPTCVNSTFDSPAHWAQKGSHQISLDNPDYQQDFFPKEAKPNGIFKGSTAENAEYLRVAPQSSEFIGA
Chain of MAP kinase-activated protein kinase 3 (Homo sapiens) (Q16644 whole entry, looked up, the tested form may be a part): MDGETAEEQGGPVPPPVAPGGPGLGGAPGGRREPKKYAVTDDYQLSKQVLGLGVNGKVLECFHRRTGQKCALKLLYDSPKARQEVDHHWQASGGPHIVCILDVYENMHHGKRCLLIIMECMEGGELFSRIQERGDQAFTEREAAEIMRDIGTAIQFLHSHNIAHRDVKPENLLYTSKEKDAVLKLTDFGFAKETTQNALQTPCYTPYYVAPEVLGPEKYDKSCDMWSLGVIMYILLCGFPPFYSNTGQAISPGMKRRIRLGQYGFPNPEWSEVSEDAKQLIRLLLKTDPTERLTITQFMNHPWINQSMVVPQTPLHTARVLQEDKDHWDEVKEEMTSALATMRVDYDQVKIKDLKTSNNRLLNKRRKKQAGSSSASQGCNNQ
Chain of Calcium/calmodulin-dependent protein kinase type II subunit beta (Homo sapiens) (Q13554 whole entry, the tested form may be a part): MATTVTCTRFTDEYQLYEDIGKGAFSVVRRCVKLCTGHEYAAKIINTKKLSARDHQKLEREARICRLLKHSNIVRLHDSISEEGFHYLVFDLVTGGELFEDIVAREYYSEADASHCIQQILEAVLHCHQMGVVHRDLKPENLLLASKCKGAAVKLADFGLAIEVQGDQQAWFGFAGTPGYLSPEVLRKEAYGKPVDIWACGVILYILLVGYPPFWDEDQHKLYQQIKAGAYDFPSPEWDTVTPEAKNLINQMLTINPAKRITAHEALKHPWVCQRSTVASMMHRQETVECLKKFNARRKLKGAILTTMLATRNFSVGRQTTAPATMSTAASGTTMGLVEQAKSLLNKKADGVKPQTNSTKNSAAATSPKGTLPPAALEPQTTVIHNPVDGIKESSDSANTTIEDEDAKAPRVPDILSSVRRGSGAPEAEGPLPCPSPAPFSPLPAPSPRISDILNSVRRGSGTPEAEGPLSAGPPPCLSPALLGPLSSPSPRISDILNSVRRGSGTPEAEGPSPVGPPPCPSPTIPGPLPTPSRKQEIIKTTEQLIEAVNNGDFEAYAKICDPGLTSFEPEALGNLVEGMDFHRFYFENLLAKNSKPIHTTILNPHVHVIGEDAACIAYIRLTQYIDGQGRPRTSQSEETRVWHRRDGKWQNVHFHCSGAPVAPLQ

`Clc1ccc(C2(c3ccc(-c4ncnc5[nH]cnc45)cc3)CCNCC2)cc1` was tested. Which inhibition [1] did it give?
Its inhibition is 11%.

With `c1nc(N2CCOCC2)c2nc[nH]c2n1` as the compound, how does the inhibition [2] read?
Its inhibition is 96.5%.

Which inhibition [3] does the source give for `NCC1CN(c2ncnc3[nH]c4cnccc4c23)CCO1` (centres undefined) here?
The inhibition was 4%.

What does the source list for `NC1CCN(c2ncnc3[nH]ccc23)CC1`?
inhibition [4]: 57.5%; inhibition [5]: 3.5%

Which inhibition [6] does the source give for `COC(=O)c1cnc(Nc2cnc(C#N)cn2)cc1NCC1CCNCC1` here?
Its inhibition is 6.5%.

Which results are given for `NC1(Cc2ccc(Cl)cc2)CCN(c2ncnc3[nH]ccc23)CC1`?
inhibition [7]: 0%; inhibition [8]: 7.5%

For `NCC1CCN(c2ncnc3[nH]ccc23)CC1`, which inhibition [9] is on record?
The inhibition was 88.5%.
